Reference: PMC5218480 (PLoS ONE, 2017)

Test system: MV-4-11 cells
Experiment: Gene expression microarray analysis (Affymetrix PrimeView) and GSEA
Type: cell-based, human
Set-up: RFU PODN (11730768_x_at) / Fold change /veh PODN (11730768_x_at) / RFU LINC00158 (11744669_a_at) / Fold change /veh LINC00158 (11744669_a_at) / RFU DUSP10 (11751237_a_at) / Fold change /veh DUSP10 (11751237_a_at) / RFU ID3 (11757404_x_at) / Fold change /veh ID3 (11757404_x_at) / RFU PLEKHG5 (11737974_s_at) / Fold change /veh PLEKHG5 (11737974_s_at) / RFU LRRC4B (11730491_at) / Fold change /veh LRRC4B (11730491_at) / RFU GIMAP4 (11747438_a_at) / Fold change /veh GIMAP4 (11747438_a_at) / RFU KRT8 (11758183_x_at) / Fold change /veh KRT8 (11758183_x_at) / RFU CNN1 (11734310_a_at) / Fold change /veh CNN1 (11734310_a_at) / RFU VPS37D (11726825_at) / Fold change /veh VPS37D (11726825_at) / RFU C10orf10 (11716522_x_at) / Fold change /veh C10orf10 (11716522_x_at) / RFU KIR2DL2 /// KIR2DL4 /// KIR2DL5A /// KIR2DL5B /// KIR2DS1 /// KIR2DS2 /// KIR2DS3 /// KIR2DS4 /// KIR3DL3 /// KIR3DL3 /// KIR3DS1 (11738374_at) / Fold change /veh KIR2DL2 /// KIR2DL4 /// KIR2DL5A /// KIR2DL5B /// KIR2DS1 /// KIR2DS2 /// KIR2DS3 /// KIR2DS4 /// KIR3DL3 /// KIR3DL3 /// KIR3DS1 (11738374_at) / RFU C1QL1 (11718748_at) / Fold change /veh C1QL1 (11718748_at) / RFU TMPRSS4 (11747572_a_at) / Fold change /veh TMPRSS4 (11747572_a_at) / RFU HAMP (11756126_x_at) / Fold change /veh HAMP (11756126_x_at) / RFU RNFT2 (11725882_a_at) / Fold change /veh RNFT2 (11725882_a_at) / RFU NR4A2 (11747474_a_at) / Fold change /veh NR4A2 (11747474_a_at) / RFU ABCC12 (11746883_a_at) / Fold change /veh ABCC12 (11746883_a_at) / RFU TMEM136 (11760407_x_at) / Fold change /veh TMEM136 (11760407_x_at) / RFU CLDN22 /// WWC2 (11732394_at) / Fold change /veh CLDN22 /// WWC2 (11732394_at) / RFU HLA-DPB1 (11760878_x_at) / Fold change /veh HLA-DPB1 (11760878_x_at) / RFU SPINT1 (11716480_a_at) / Fold change /veh SPINT1 (11716480_a_at) / RFU GAP43 (11754022_s_at) / Fold change /veh GAP43 (11754022_s_at) / RFU A4GNT (11735810_at) / Fold change /veh A4GNT (11735810_at) / RFU PRB3 (11715151_x_at) / Fold change /veh PRB3 (11715151_x_at) / RFU TUBB4B (11761932_at) / Fold change /veh TUBB4B (11761932_at) / RFU CAPN14 (11732068_a_at) / Fold change /veh CAPN14 (11732068_a_at) / RFU TMCC2 (11721928_a_at) / Fold change /veh TMCC2 (11721928_a_at) / RFU IRGQ (11745062_a_at) / Fold change /veh IRGQ (11745062_a_at) / RFU FAM174B (11720279_a_at) / Fold change /veh FAM174B (11720279_a_at) / RFU TMPRSS4 (11748680_a_at) / Fold change /veh TMPRSS4 (11748680_a_at) / RFU FAM212B (11763350_a_at) / Fold change /veh FAM212B (11763350_a_at) / RFU PLEKHG5 (11743358_a_at) / Fold change /veh PLEKHG5 (11743358_a_at) / RFU ZSCAN30 (11745921_a_at) / Fold change /veh ZSCAN30 (11745921_a_at) / RFU CMKLR1 (11741424_a_at) / Fold change /veh CMKLR1 (11741424_a_at) / RFU LOC101060620 /// MAPK8IP1 (11723275_at) / Fold change /veh LOC101060620 /// MAPK8IP1 (11723275_at) / RFU SPTSSB (11747773_x_at) / Fold change /veh SPTSSB (11747773_x_at) / RFU PRSS12 (11739890_at) / Fold change /veh PRSS12 (11739890_at) / RFU BIN1 (11741810_x_at) / Fold change /veh BIN1 (11741810_x_at) / RFU WNT11 (11732464_a_at) / Fold change /veh WNT11 (11732464_a_at) / RFU C10orf10 (11716521_a_at) / Fold change /veh C10orf10 (11716521_a_at) / RFU C5orf56 (11738089_at) / Fold change /veh C5orf56 (11738089_at) / RFU CYB561 (11721691_x_at) / Fold change /veh CYB561 (11721691_x_at) / RFU ANKRD19P (11752326_a_at) / Fold change /veh ANKRD19P (11752326_a_at) / RFU OR2T12 /// OR2T33 /// OR2T8 (11738714_s_at) / Fold change /veh OR2T12 /// OR2T33 /// OR2T8 (11738714_s_at) / RFU VCAN (11748164_a_at) / Fold change /veh VCAN (11748164_a_at) / RFU JSRP1 (11732532_at) / Fold change /veh JSRP1 (11732532_at) / RFU KRTAP10-11 (11738290_x_at) / Fold change /veh KRTAP10-11 (11738290_x_at) / RFU MYO3A (11730013_a_at) / Fold change /veh MYO3A (11730013_a_at) / RFU EBF3 (11725865_a_at) / Fold change /veh EBF3 (11725865_a_at) / RFU CAMK2N1 (11719241_x_at) / Fold change /veh CAMK2N1 (11719241_x_at) / RFU C5orf56 (11738088_a_at) / Fold change /veh C5orf56 (11738088_a_at) / RFU OLFML3 (11715873_a_at) / Fold change /veh OLFML3 (11715873_a_at) / RFU LOC100653217 /// NTM (11731650_a_at) / Fold change /veh LOC100653217 /// NTM (11731650_a_at) / RFU MAPK11 (11762145_a_at) / Fold change /veh MAPK11 (11762145_a_at) / RFU FIZ1 (11724087_x_at) / Fold change /veh FIZ1 (11724087_x_at) / RFU OASL (11726364_x_at) / Fold change /veh OASL (11726364_x_at) / RFU SOX15 (11748057_x_at) / Fold change /veh SOX15 (11748057_x_at) / RFU CD79A (11719716_a_at) / Fold change /veh CD79A (11719716_a_at) / RFU HIST1H1D (11736915_at) / Fold change /veh HIST1H1D (11736915_at) / RFU CASKIN2 (11723855_a_at) / Fold change /veh CASKIN2 (11723855_a_at) / RFU LOC730098 (11760151_x_at) / Fold change /veh LOC730098 (11760151_x_at) / RFU OR4N2 (11742367_at) / Fold change /veh OR4N2 (11742367_at) / RFU PRRT2 (11749266_a_at) / Fold change /veh PRRT2 (11749266_a_at) / RFU SNX32 (11753110_a_at) / Fold change /veh SNX32 (11753110_a_at) / RFU CDHR5 (11726645_a_at) / Fold change /veh CDHR5 (11726645_a_at) / RFU RCAN1 (11760418_a_at) / Fold change /veh RCAN1 (11760418_a_at) / RFU FAM167A (11723789_a_at) / Fold change /veh FAM167A (11723789_a_at) / RFU FAM26E (11764081_at) / Fold change /veh FAM26E (11764081_at) / RFU ISYNA1 (11749810_s_at) / Fold change /veh ISYNA1 (11749810_s_at) / RFU ACY1 (11761880_at) / Fold change /veh ACY1 (11761880_at) / RFU 11764098_at / Fold change /veh 11764098_at / RFU SAMD14 (11745864_x_at) / Fold change /veh SAMD14 (11745864_x_at) / RFU NPB (11741838_a_at) / Fold change /veh NPB (11741838_a_at) / RFU TMPRSS6 (11731388_a_at) / Fold change /veh TMPRSS6 (11731388_a_at) / RFU KRTAP10-2 (11738614_at) / Fold change /veh KRTAP10-2 (11738614_at) / RFU ARHGAP8 /// PRR5-ARHGAP8 (11727945_x_at) / Fold change /veh ARHGAP8 /// PRR5-ARHGAP8 (11727945_x_at) / RFU KRTAP5-7 /// NADSYN1 (11734609_at) / Fold change /veh KRTAP5-7 /// NADSYN1 (11734609_at) / RFU RASL12 (11751679_a_at) / Fold change /veh RASL12 (11751679_a_at) / RFU CDKN2B (11736163_a_at) / Fold change /veh CDKN2B (11736163_a_at) / RFU PRF1 (11729649_at) / Fold change /veh PRF1 (11729649_at) / RFU, ZNF638 /// ZNF638-IT1 / Fold change vs veh, ZNF638 /// ZNF638-IT1 / RFU, PANK3 / Fold change vs veh, PANK3 / RFU, SH3YL1 / Fold change vs veh, SH3YL1 / RFU, ZEB2 / Fold change vs veh, ZEB2 / RFU, NRIP1 / Fold change vs veh, NRIP1 / RFU, PTTG1IP / Fold change vs veh, PTTG1IP / RFU, CAPN2 / Fold change vs veh, CAPN2 / RFU, MED14 / Fold change vs veh, MED14 / RFU, SNORA58 / Fold change vs veh, SNORA58 / RFU, C1orf63 / Fold change vs veh, C1orf63 / RFU, LRRFIP1 / Fold change vs veh, LRRFIP1 / RFU, NDUFAF7 / Fold change vs veh, NDUFAF7 / RFU, SLC12A2 / Fold change vs veh, SLC12A2 / RFU, IBTK / Fold change vs veh, IBTK / RFU, ESF1 / Fold change vs veh, ESF1 / Fold change vs veh, TMEM50B / RFU, TAOK1 / Fold change vs veh, TAOK1 / RFU, ACBD3 / Fold change vs veh, ACBD3 / RFU, TMA16 / Fold change vs veh, TMA16 / RFU, RWDD3 / Fold change vs veh, RWDD3 / RFU, BCAT1 / Fold change vs veh, BCAT1 / RFU, EDEM3 / Fold change vs veh, EDEM3 / RFU, TMEM33 / Fold change vs veh, TMEM33 / RFU, WDR75 / Fold change vs veh, WDR75 / RFU, AHCTF1 / Fold change vs veh, AHCTF1 / RFU, TFRC / Fold change vs veh, TFRC / RFU, ZDHHC17 / Fold change vs veh, ZDHHC17 / RFU, NOM1 / Fold change vs veh, NOM1 / RFU, ARL8B / Fold change vs veh, ARL8B / RFU, ZBTB11 / Fold change vs veh, ZBTB11 / RFU, TAMM41 / Fold change vs veh, TAMM41 / RFU, KIAA1704 /// LOC100996395 / Fold change vs veh, KIAA1704 /// LOC100996395 / RFU, ING1 / Fold change vs veh, ING1 / RFU, TRMT61B / Fold change vs veh, TRMT61B / RFU, FUBP3 / Fold change vs veh, FUBP3 / RFU, TP53 / Fold change vs veh, TP53 / RFU, TNKS2 / Fold change vs veh, TNKS2 / RFU, ZFP14 / Fold change vs veh, ZFP14 / RFU, ACTR2 / Fold change vs veh, ACTR2 / RFU, PPP3R1 / Fold change vs veh, PPP3R1 / RFU, PIK3R1 / Fold change vs veh, PIK3R1 / RFU, HNRNPA1 / Fold change vs veh, HNRNPA1 / RFU, RNF170 / Fold change vs veh, RNF170 / RFU, ZNF28 / Fold change vs veh, ZNF28 / RFU, RNGTT / Fold change vs veh, RNGTT / RFU, OGT / Fold change vs veh, OGT / RFU, BRD1 / Fold change vs veh, BRD1 / RFU, MARS / Fold change vs veh, MARS / RFU, ZNF655 / Fold change vs veh, ZNF655 / RFU, FAHD1 / Fold change vs veh, FAHD1 / RFU, BDP1 / Fold change vs veh, BDP1 / RFU, LRRCC1 / Fold change vs veh, LRRCC1 / RFU, ARID1A / Fold change vs veh, ARID1A / RFU, ZNF146 / Fold change vs veh, ZNF146 / RFU, ZNF330 / Fold change vs veh, ZNF330 / RFU, GPN3 / Fold change vs veh, GPN3 / RFU, C9orf123 / Fold change vs veh, C9orf123 / RFU, N4BP2L2 / Fold change vs veh, N4BP2L2 / RFU, ARFIP1 / Fold change vs veh, ARFIP1 / RFU, FAM179B / Fold change vs veh, FAM179B / RFU, BCL10 / Fold change vs veh, BCL10 / RFU, UHRF1BP1L / Fold change vs veh, UHRF1BP1L / RFU, BET1 / Fold change vs veh, BET1 / RFU, CNOT2 / Fold change vs veh, CNOT2 / RFU, ZNF268 / Fold change vs veh, ZNF268 / Fold change vs veh, ZNF507 / RFU, DGCR2 / Fold change vs veh, DGCR2 / RFU, WDSUB1 / Fold change vs veh, WDSUB1 / Fold change vs veh, HSP90B1 /// MIR3652 / RFU, ADSS / Fold change vs veh, ADSS / RFU, GK / Fold change vs veh, GK / RFU, ZNF148 / Fold change vs veh, ZNF148 / RFU, TAF9 / Fold change vs veh, TAF9 / RFU, SLC1A5 / Fold change vs veh, SLC1A5 / RFU, SLMO2 / Fold change vs veh, SLMO2 / RFU, ABCC4 / Fold change vs veh, ABCC4 / RFU, LOC101060439 /// RAP1B / Fold change vs veh, LOC101060439 /// RAP1B / RFU, RFX7 / Fold change vs veh, RFX7 / RFU, GTPBP10 / Fold change vs veh, GTPBP10 / RFU, CNEP1R1 / Fold change vs veh, CNEP1R1 / RFU, BIVM-ERCC5 /// ERCC5 / Fold change vs veh, BIVM-ERCC5 /// ERCC5 / RFU, ILF3 / Fold change vs veh, ILF3 / RFU 11762660_at / Fold change /veh 11762660_at / RFU VCAN (11757783_s_at) / Fold change /veh VCAN (11757783_s_at) / RFU DDX43 (11728927_at) / Fold change /veh DDX43 (11728927_at) / RFU KRT8 (11758188_x_at) / Fold change /veh KRT8 (11758188_x_at) / RFU NKD1 (11759106_at) / Fold change /veh NKD1 (11759106_at) / RFU SRD5A1 (11742802_a_at) / Fold change /veh SRD5A1 (11742802_a_at) / RFU TPSAB1 /// TPSB2 (11721975_s_at) / Fold change /veh TPSAB1 /// TPSB2 (11721975_s_at) / RFU GSTM3 (11746129_a_at) / Fold change /veh GSTM3 (11746129_a_at) / RFU IL23R (11737362_x_at) / Fold change /veh IL23R (11737362_x_at) / RFU TMEM51 (11727254_a_at) / Fold change /veh TMEM51 (11727254_a_at) / RFU PIWIL2 (11732686_x_at) / Fold change /veh PIWIL2 (11732686_x_at) / RFU ORM1 (11744905_x_at) / Fold change /veh ORM1 (11744905_x_at) / RFU CCDC152 (11743942_at) / Fold change /veh CCDC152 (11743942_at) / RFU ECM1 (11717891_a_at) / Fold change /veh ECM1 (11717891_a_at) / RFU IL23R (11748794_a_at) / Fold change /veh IL23R (11748794_a_at) / RFU TNFAIP8L3 (11732012_x_at) / Fold change /veh TNFAIP8L3 (11732012_x_at) / RFU MBOAT4 (11741988_at) / Fold change /veh MBOAT4 (11741988_at) / RFU 11764193_at / Fold change /veh 11764193_at / RFU TMEM53 (11763286_at) / Fold change /veh TMEM53 (11763286_at) / RFU MAGEB2 (11727129_at) / Fold change /veh MAGEB2 (11727129_at) / RFU TMEM200A (11744735_a_at) / Fold change /veh TMEM200A (11744735_a_at) / RFU CCDC152 (11751479_a_at) / Fold change /veh CCDC152 (11751479_a_at) / RFU FAM211A (11726209_a_at) / Fold change /veh FAM211A (11726209_a_at) / RFU RGS16 (11746705_a_at) / Fold change /veh RGS16 (11746705_a_at) / RFU VCAN (11755009_s_at) / Fold change /veh VCAN (11755009_s_at) / RFU RHOB (11743442_s_at) / Fold change /veh RHOB (11743442_s_at) / RFU RGS16 (11720943_a_at) / Fold change /veh RGS16 (11720943_a_at) / RFU RGS16 (11720944_at) / Fold change /veh RGS16 (11720944_at) / RFU, VPS4B / Fold change vs veh, VPS4B / RFU, CREB1 / Fold change vs veh, CREB1 / RFU, DNAJC13 / Fold change vs veh, DNAJC13 / RFU, GNAQ / Fold change vs veh, GNAQ / RFU, CDK5R1 / Fold change vs veh, CDK5R1 / RFU, ZRANB3 / Fold change vs veh, ZRANB3 / RFU, CUL4A / Fold change vs veh, CUL4A / RFU, CCNY / Fold change vs veh, CCNY / RFU, UFL1 / Fold change vs veh, UFL1 / RFU, COG3 / Fold change vs veh, COG3 / RFU, DIAPH2 / Fold change vs veh, DIAPH2 / RFU, SKA2 / Fold change vs veh, SKA2 / RFU, AFF3 / Fold change vs veh, AFF3 / RFU, LMF1 / Fold change vs veh, LMF1 / RFU, IPO11 / Fold change vs veh, IPO11 / RFU, DFFB / Fold change vs veh, DFFB / RFU, FOXP1 / Fold change vs veh, FOXP1 / RFU, CARD8 / Fold change vs veh, CARD8 / RFU, STRN3 / Fold change vs veh, STRN3 / RFU, ADK / Fold change vs veh, ADK / RFU, RASSF2 / Fold change vs veh, RASSF2 / RFU, WIPF1 / Fold change vs veh, WIPF1 / RFU, LARP1B / Fold change vs veh, LARP1B / RFU, RASA1 / Fold change vs veh, RASA1 / RFU, RB1 / Fold change vs veh, RB1 / RFU, PPFIA1 / Fold change vs veh, PPFIA1 / RFU, MAT2A / Fold change vs veh, MAT2A / RFU, CCT5 / Fold change vs veh, CCT5 / RFU, WDR92 / Fold change vs veh, WDR92 / RFU, CUX1 / Fold change vs veh, CUX1 / RFU, TTC7A / Fold change vs veh, TTC7A / RFU, TMEM135 / Fold change vs veh, TMEM135 / RFU, DEPTOR / Fold change vs veh, DEPTOR / RFU, CPM / Fold change vs veh, CPM / RFU, DNAJB6 / Fold change vs veh, DNAJB6 / RFU, CACNA2D3 / Fold change vs veh, CACNA2D3 / RFU, DTX4 / Fold change vs veh, DTX4 / RFU, TFCP2 / Fold change vs veh, TFCP2 / RFU, GMCL1 /// GMCL1P1 / Fold change vs veh, GMCL1 /// GMCL1P1 / RFU, AEBP2 / Fold change vs veh, AEBP2 / RFU, SNHG1 /// SNORD22 /// SNORD25 /// SNORD26 /// SNORD27 /// SNORD28 /// SNORD29 /// SNORD31 / Fold change vs veh, SNHG1 /// SNORD22 /// SNORD25 /// SNORD26 /// SNORD27 /// SNORD28 /// SNORD29 /// SNORD31 / Fold change (Aza/veh), C12orf56 (ProbeSet 11735607_a_at) / Fold change (ACY-1035/veh), C12orf56 (ProbeSet 11735607_a_at) / Fold change (Aza/veh), FGFR1OP (ProbeSet 11751329_s_at) / Fold change (ACY-1035/veh), FGFR1OP (ProbeSet 11751329_s_at) / Fold change (Aza/veh), VPS36 (ProbeSet 11739960_a_at) / Fold change (ACY-1035/veh), VPS36 (ProbeSet 11739960_a_at) / RFU SYPL1 (11715823_x_at) / Fold change /veh SYPL1 (11715823_x_at) / RFU IGFBP7 (11715501_s_at) / Fold change /veh IGFBP7 (11715501_s_at) / RFU REEP3 (11722064_at) / Fold change /veh REEP3 (11722064_at) / RFU IGLL1 (11728026_x_at) / Fold change /veh IGLL1 (11728026_x_at): dose or concentration left out as unconfirmed
Conditions: MV-4-11 cells, 48 hours

Nc1ncn([C@@H]2O[C@H](CO)[C@@H](O)[C@H]2O)c(=O)n1 [azacitidine]
Fold change /veh CD79A (11719716_a_at): 0.94
